According to PubChem BioAssay (NCI):
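Grown in 96-well plates, cells were treated for 48 hours with each compound at five concentrations. Insufficient inhibition: endpoint recorded as highest concentration tested. The concentration for 50% growth inhibition is given as GI50. The concentration for full growth arrest is given as TGI.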

Assays:
Assay in all cases: DTP human tumour cell line panel, 48 h
[1] = system: ACHN renal
[2] = system: DU-145 prostate
[3] = system: HT29 colon
[4] = system: MDA-MB-435
[5] = system: NCI/ADR-RES ovarian
[6] = system: OVCAR-8 ovarian
[7] = system: RPMI-8226 leukemia
[8] = system: SK-MEL-28 melanoma
[9] = system: SNB-75 CNS
[10] = system: UACC-62 melanoma

`CSc1nc2nc(-c3ccccc3)c(C)c-2c2n1C(C)C(=O)N2` (configuration not stated) gave a GI50 [1] of 38.1 µM, a TGI [1] of over 100 µM and a GI50 [2] of 51.9 µM. For the same compound, the TGI [2] was over 100 µM, the GI50 [3] was 33.7 µM and the TGI [3] was over 100 µM. It also gave a GI50 [4] of 32.9 µM, a TGI [4] of over 100 µM and a GI50 [5] of 38.8 µM. It also gave a TGI [5] of over 100 µM, a GI50 [6] of 45.7 µM and a TGI [6] of over 100 µM. For the same compound, the GI50 [7] was 16.4 µM, the TGI [7] was over 100 µM and the GI50 [8] was 43.4 µM. The TGI [8] was over 100 µM, the GI50 [9] was 43.2 µM and the TGI [9] was over 100 µM. For the same compound, the GI50 [10] was 18.6 µM and the TGI [10] was 45.2 µM.

`COc1ccc(/C=C2\C(=O)N(NC(C)=O)c3ccccc32)cc1` was tested, and the TGI [1] was over 100 µM, the TGI [3] was over 100 µM and the TGI [6] was over 100 µM. For the same compound, the TGI [7] was over 100 µM, the TGI [8] was over 100 µM and the TGI [9] was 93.8 µM. The TGI [10] was over 100 µM.

`COc1ccc2c(C(=O)O)cc3ccccc3c2c1OC` gave a TGI [1] of 29.8 µM, a TGI [3] of 48.9 µM and a TGI [6] of 56.8 µM. For the same compound, the TGI [7] was over 100 µM, the TGI [8] was 33.6 µM and the TGI [9] was over 100 µM. The TGI [10] was 32.5 µM.

Work on `O=[N+]([O-])c1ccc(-c2ccc(C3=Nn4c(CNc5ccccc5Cl)nnc4SC3)o2)cc1` yielded a TGI [1] of over 100 µM, a TGI [3] of over 100 µM and a TGI [6] of over 100 µM. For the same compound, the TGI [7] was over 100 µM, the TGI [8] was over 100 µM and the TGI [9] was over 100 µM. For the same compound, the TGI [10] was over 100 µM.

Work on `CN1CCN(c2c(F)cc(NC3=C(Cl)C(=O)c4ncccc4C3=O)cc2F)CC1` yielded a GI50 [1] of 1.61 µM, a TGI [1] of 2.96 µM and a GI50 [2] of 12.7 µM. The TGI [2] was 26.2 µM, the GI50 [3] was 4.67 µM and the TGI [3] was 22.5 µM. The GI50 [4] was 1.84 µM, the TGI [4] was 3.62 µM and the GI50 [5] was 17.9 µM. The TGI [5] was 49.3 µM, the GI50 [6] was 8.82 µM and the TGI [6] was over 100 µM. The GI50 [8] was 6.47 µM, the TGI [8] was 19 µM and the GI50 [9] was 10.9 µM. It also gave a TGI [9] of 23.9 µM, a GI50 [10] of 14.8 µM and a TGI [10] of 28 µM.

For `O=C(NCCc1ccccc1)C1C(=O)C(=O)N(CCc2ccccc2)C1=O` (configuration not stated), the TGI [1] was over 100 µM, the TGI [3] was over 100 µM and the TGI [7] was over 100 µM. The TGI [8] was over 100 µM, the TGI [9] was over 100 µM and the TGI [10] was over 100 µM.

With `c1ccc(C(c2ccccc2)c2ccccn2)cc1` the TGI [1] was over 100 µM, the TGI [3] was over 100 µM and the TGI [6] was over 100 µM. It also gave a TGI [7] of over 100 µM, a TGI [8] of over 100 µM and a TGI [9] of over 100 µM. It also gave a TGI [10] of over 100 µM.

`COc1cc(/C=C/c2cc(/C=C/c3ccc(O)c(OC)c3)n(C(=O)c3ccccc3Br)n2)ccc1O` gave a GI50 [2] of 3.29 µM, a TGI [2] of 34.8 µM and a GI50 [4] of 0.687 µM. For the same compound, the TGI [4] was 8.06 µM, the GI50 [5] was 3.72 µM and the TGI [5] was over 100 µM. The GI50 [6] was 2.75 µM, the TGI [6] was 12.4 µM and the GI50 [7] was 2.05 µM. It also gave a TGI [7] of 6 µM, a GI50 [8] of 2.57 µM and a TGI [8] of 8.71 µM. For the same compound, the GI50 [9] was 2.79 µM, the TGI [9] was 15.4 µM and the GI50 [10] was 2.64 µM. For the same compound, the TGI [10] was 8.77 µM.

`CCOC(=O)C1=C(NC)OCC1=O` showed a TGI [1] of over 100 µM, a TGI [3] of over 100 µM and a TGI [6] of over 100 µM. The TGI [7] was over 100 µM, the TGI [8] was over 100 µM and the TGI [9] was over 100 µM. The TGI [10] was over 100 µM.

Compound `COc1cc(/C=C2\NC(=O)C(Cc3cc(OC)c(OC)c(C)c3OC)N(C(C)=O)C2=O)c(OC)c(C)c1OC` (configuration not stated) has a TGI [1] of over 100 µM, a TGI [3] of over 100 µM and a TGI [6] of over 100 µM. The TGI [7] was over 100 µM, the TGI [8] was over 100 µM and the TGI [9] was over 100 µM. The TGI [10] was over 100 µM.

`O=NN(CCCl)C(=O)NC1CCC(CC(=O)O)CC1` (configuration not stated) was tested, and the TGI [1] was over 100 µM, the TGI [3] was over 100 µM and the TGI [5] was over 100 µM. The TGI [6] was over 100 µM, the TGI [7] was over 100 µM and the TGI [8] was over 100 µM. For the same compound, the TGI [9] was over 100 µM and the TGI [10] was over 100 µM.

Work on `CC(=O)Oc1c(C(=O)[O-])cc(C(C)C)cc1C(C)C.CC(=O)Oc1c(C(=O)[O-])cc(C(C)C)cc1C(C)C.CC(=O)Oc1c(C(=O)[O-])cc(C(C)C)cc1C(C)C.CC(=O)Oc1c(C(=O)[O-])cc(C(C)C)cc1C(C)C.[Cu+2].[Cu+2]` yielded a GI50 [1] of 75.2 µM, a TGI [1] of over 100 µM and a GI50 [2] of 34.2 µM. For the same compound, the TGI [2] was over 100 µM, the GI50 [3] was 37.5 µM and the TGI [3] was over 100 µM. For the same compound, the GI50 [4] was 3.18 µM, the TGI [4] was 9.16 µM and the GI50 [6] was 30.6 µM. The TGI [6] was over 100 µM, the GI50 [8] was 17.9 µM and the TGI [8] was 33.4 µM. It also gave a GI50 [9] of 34.3 µM, a TGI [9] of 77.6 µM and a GI50 [10] of 18.6 µM. The TGI [10] was 39.9 µM.

For `O=C1C2C3C=CC(C2C(=O)N1CO)C1C2C(=O)N(CO)C(=O)C2C31` (configuration not stated), the TGI [1] was over 66.6 µM, the TGI [3] was over 100 µM and the TGI [6] was over 75.8 µM. For the same compound, the TGI [7] was 46.5 µM, the TGI [8] was over 100 µM and the TGI [9] was over 100 µM. It also gave a TGI [10] of over 100 µM.

`CCCCS(=O)c1sc2nc(-c3cccs3)cc(-c3ccccc3)c2c1N` (configuration not stated) gave a GI50 [1] of 9.1 µM, a TGI [1] of over 95.3 µM and a GI50 [2] of 30.4 µM. The TGI [2] was over 100 µM, the GI50 [3] was 20.6 µM and the TGI [3] was over 100 µM. It also gave a GI50 [4] of 17.3 µM, a TGI [4] of 99.7 µM and a GI50 [5] of 6.42 µM. For the same compound, the TGI [5] was over 100 µM, the GI50 [6] was 19.9 µM and the TGI [6] was over 100 µM. The GI50 [7] was 3.59 µM, the TGI [7] was 23.7 µM and the GI50 [8] was 29.2 µM. The TGI [8] was over 100 µM, the GI50 [9] was 10.2 µM and the TGI [9] was 98.7 µM.

In the case of `CC(=O)[CH-]C(=O)c1ccccc1.[C-]#[O+].[C-]#[O+].[Ir]`, the GI50 [3] is reported as over 10 µM, the TGI [3] is reported as over 10 µM and the GI50 [6] is reported as over 100 µM. It also gave a TGI [6] of over 100 µM, a GI50 [7] of over 10 µM and a TGI [7] of over 10 µM. For the same compound, the GI50 [8] was over 100 µM, the TGI [8] was over 100 µM and the GI50 [9] was over 100 µM. It also gave a TGI [9] of over 100 µM, a GI50 [10] of over 100 µM and a TGI [10] of over 100 µM.

In the case of `COc1ccc(Nc2cnc3cc(N)cc(N)c3n2)cc1`, the GI50 [2] is reported as 30.4 µM, the TGI [2] is reported as over 100 µM and the GI50 [4] is reported as 16.7 µM. The TGI [4] was 33.8 µM, the GI50 [5] was 16.4 µM and the TGI [5] was 35 µM. The GI50 [6] was 14.1 µM, the TGI [6] was 29.4 µM and the GI50 [7] was 4.53 µM. For the same compound, the TGI [7] was 25.7 µM, the GI50 [8] was 21.2 µM and the TGI [8] was 44.8 µM. It also gave a GI50 [10] of 14.6 µM and a TGI [10] of 28.8 µM.

Compound `O=C1N[C@@H]2CCCC[C@@H]2C12CCCCC2` has a TGI [1] of over 100 µM, a TGI [3] of over 100 µM and a TGI [6] of over 100 µM. For the same compound, the TGI [7] was over 100 µM, the TGI [8] was over 100 µM and the TGI [9] was over 100 µM. For the same compound, the TGI [10] was over 100 µM.

With `CC(=O)Nc1ccc(C2CC(c3ccc([N+](=O)[O-])cc3)=Nc3ccccc3S2=O)cc1` (configuration not stated) the TGI [1] was 51.8 µM, the TGI [3] was 59.1 µM and the TGI [6] was 89.2 µM. The TGI [7] was 20.5 µM, the TGI [8] was 43.7 µM and the TGI [9] was over 100 µM. It also gave a TGI [10] of 27.8 µM.

`O=C1NC(=O)C2C(=O)NC(=O)C1C2Cc1ccco1` (configuration not stated) showed a TGI [1] of over 100 µM, a TGI [3] of over 100 µM and a TGI [6] of over 100 µM. It also gave a TGI [7] of over 100 µM, a TGI [8] of over 100 µM and a TGI [9] of over 100 µM. For the same compound, the TGI [10] was over 100 µM.

`COc1cc(OC)c(OC)cc1/C=C/c1nc2ccccc2s1` was tested, and the TGI [1] was over 100 µM, the TGI [2] was over 100 µM and the TGI [3] was over 100 µM. It also gave a TGI [4] of 15.1 µM, a TGI [5] of over 100 µM and a TGI [6] of over 100 µM. For the same compound, the TGI [7] was over 100 µM, the TGI [8] was over 100 µM and the TGI [9] was over 100 µM.
